Reference: article PMC8398472, “Anticancer Diiron Vinyliminium Complexes: A Structure–Activity Relationship Study” (Pharmaceutics, 2021)
Several values for one entry are separate records, joined by “and”; a condition that tells them apart may be missing. Equal entries are not always repeated.

Experiments:
[1] = tested on: human ovarian carcinoma cisplatin-resistant A2780cisR; experiment: Cytotoxicity, WST-1 cell viability assay, A2780cisR; type: cell-based; details: for IC50: 72 h exposure
Description: In vitro cytotoxicity investigations were carried out by using human ovarian carcinoma cisplatin-sensitive A2780 (ECACC93112519), human ovarian carcinoma cisplatin-resistant A2780cisR (ECACC 93112517) and mouse embryo fibroblasts Balb/3T3 clone A31 (ATCC CCL-163) cell lines. A2780 and A2780cisR were purchased from the European Collection of Authenticated Cell Cultures (ECACC), and Balb/3T3 clone A31 cell line from the American Type Culture Collection (ATCC).
A2780 and A2780cisR cells were routinely cultured in RPMI 1640 (Merck) containing 2 mM of L-glutamine (Merck), 1% of penicillin/streptomycin solution (Merck—10 000 U mL^−1: 10 mg mL^−1), 10% of fetal bovine serum (Merck—FBS) and antimycotic (InvivoGen, USA), and Balb/3T3 clone A31 in Dulbecco’s modified Eagle medium (Merck—DMEM) supplemented with 4 mM of L-glutamine, 1% of penicillin/streptomycin solution, 10% of calf serum (Merck) and antimycotic. […] The cultures were maintained at 37 °C and in a 5% CO2-enriched atmosphere.
A2780, A2780cisR and Balb/3T3 clone A31 cells were seeded in 96-well tissue culture polystyrene plates at a concentration of 3 × 10^3, 6 × 10^3 and 1 × 10^3 cells per well, respectively. After overnight incubation, the cells were treated with different concentrations (0–100 µM) of the selected compounds for 72 h at 37 °C in a 5% atmosphere of CO2. Stock solutions of compounds were prepared in DMSO and sequentially diluted in medium (final DMSO concentration of 0.5%). […] At the end of the incubation time, cell viability was assessed by means of WST-1 tetrazolium salt reagent (Roche). Briefly, cells were incubated for 4 h with the tetrazolium salt reagent diluted 1:10, at 37 °C and 5% CO2. Measurements of formazan dye absorbance, which directly correlates with the number of viable cells, were carried out with a micro-plate reader (Biorad) at 450 nm, using 655 nm as reference wavelength. The 50% inhibitory concentration (IC50) refers to compound concentration at which 50% of cell death is observed with respect to the control. For each tested compound, assay was performed on triplicate. The concentration effect curves were generated by nonlinear regression curves (GraphPad Prism Software, 2021) and the data reported as mean ± standard deviation.

[2] = Solubility in D2O by 1H NMR (Me2SO2 internal standard); type: physicochemical; details: for Solubility: 21 °C
Description: • (a) Solubility in D2O. A suspension of the selected diiron compound (3–5 mg) in a D2O solution (ca. 1 mL) containing Me2SO2 (3.36 × 10^−3 M) as internal standard was vigorously stirred at 21 °C for 1.5 h. The resulting saturated solution was filtered over celite, transferred into an NMR tube and then analyzed by ^1H NMR spectroscopy (delay time = 3 s; number of scans = 20). The concentration (solubility) was calculated by the relative integral (related to Cp and/or NMe signals) with respect to Me2SO2 (δ = 3.14 ppm). • (b) Stability in DMSO-d6/D2O solution. The selected diiron compound (ca. 4 mg) was added of 1 mL of D2O (3a,c) or DMSO-d6/D2O (2:1 v/v) mixture (2a,c, 3b, 4a–c, 5a–c, 6a–c, 7), containing Me2SO2 (3.36 × 10^−3 M). The resulting mixture was stirred for 30 min and then filtered over celite; the filtrated solution was transferred into an NMR tube. The sample was analyzed by ^1H NMR (time = 0) and then heated at 37 °C for 72 h. After cooling to room temperature, the solution was separated from a small amount of solid by filtration over celite, and the new ^1H NMR spectrum was recorded (delay time = 3 s; number of scans = 20). In every case, no newly formed organometallic species was detected. The amount of starting material in solution (% with respect to the initial spectrum) was calculated by the relative integral (vs. Cp and/or NMe signals) with respect to Me2SO2 as internal standard.

[3] = Octanol–water partition coefficient (shake-flask, UV–Vis); type: physicochemical; details: 21 °C
Description: • (c) Octanol–water partition coefficients (Log Pow). Partition coefficients (Pow; IUPAC: KD partition constant), defined as Pow = corg/caq, where corg and caq are molar concentrations of the selected compound in the organic and aqueous phase, respectively, were determined by the shake-flask method and UV–Vis measurements. Deionized water and 1-octanol were vigorously stirred for 24 h to enable saturation of both phases, then separated by centrifugation. A stock solution of the selected diiron compound (ca. 2 mg; 2a–c, 3b, 4a–c, 5a, 5c, 6b,c, 7) was prepared by first adding acetone (50 μL, to help solubilization), followed by water-saturated octanol (2.5 mL). The solution was diluted with water-saturated octanol (ca. 1:3 v/v ratio, cFe2 ≈ 10^−4 M, so that 1.5 ≤ A ≤ 2.0 at λmax) and the UV–Vis spectrum was recorded (A^0org). An aliquot of the solution (Vorg = 1.2 mL) was transferred into a test tube and octanol-saturated water (Vorg = Vaq = 1.2 mL) was added. The mixture was vigorously stirred for 15 min at 21 °C and then centrifuged (5000 rpm, 10 min). The UV–Vis spectrum of the organic phase was recorded (A^forg) and the partition coefficient was calculated as Pow = A^forg/(A^0org − A^forg), where A^0org and A^forg are the absorbance in the organic phase before and after partition with the aqueous phase, respectively. An inverse procedure was followed for 3a, 3c, 5b and 6a, starting from a solution of the compound in octanol-saturated water. The partition coefficient was calculated as Pow = (A^0aq − A^faq)/A^faq where A^0aq and A^faq are the absorbance in the aqueous phase before and after partition with the organic phase, respectively. The wavelength of the maximum absorption of each compound (ca. 300 nm) was used for UV–Vis quantitation. The procedure was repeated three times for each sample (from the same stock solution); results are given as mean ± standard deviation.

Substance | Solubility [2] | Log Pow [3] | Solubility in D2O (in words) [2] | IC50 [1] [µM] | Selectivity index vs A2780cisR ([1]; Balb/3T3 compared to A2780cisR)
[Fe2Cp2(CO)(μ-CO){μ-η^1:η^3-C^3(Me)C^2(Me)C^1NMe(CH2Ph)}]CF3SO3 [Compound 5b] | 1.52 × 10^−3 mol·L^−1 and 0.96 g·L^−1 | −0.43 ± 0.01 |  | 12 ± 4 | 
[Fe2Cp2(CO)(μ-CO){μ-η^1:η^3-C^3(Me)C^2(Me)C^1NMe(4-C6H4OMe)}]CF3SO3 [Compound 6c] | 1.06 × 10^−3 mol·L^−1 and 0.69 g·L^−1 | −0.21 ± 0.01 |  | 17 ± 3 | 
[Fe2Cp2(CO)(μ-CO){μ-η^1:η^3-C^3(Me)C^2(Me)C^1NMe(2-naphthyl)}]CF3SO3 [Compound 7] |  | 0.38 ± 0.02 | almost insoluble in D2O |  | 
[Fe2Cp2(CO)(μ-CO){μ-η^1:η^3-C^3(Me)C^2(Me)C^1N(CH2Ph)2}]CF3SO3 [Compound 2c] |  | 0.56 ± 0.08 | almost insoluble in D2O |  | 

Now from value to substance, other results behind:

Solubility [2] | Log Pow [3] | Solubility in D2O (in words) [2] | Substance | IC50 [1] [µM] | Selectivity index vs A2780cisR ([1]; Balb/3T3 compared to A2780cisR)
 | 0.37 ± 0.04 |  | [Fe2Cp2(CO)(μ-CO){μ-η^1:η^3-C^3(Ph)C^2HC^1NMe(4-C6H4OMe)}]CF3SO3 [Compound 6b] |  | 
2.63 × 10^−3 mol·L^−1 and 1.64 g·L^−1 | −0.17 ± 0.01 |  | [Fe2Cp2(CO)(μ-CO){μ-η^1:η^3-C^3(Me)C^2(Me)C^1NMe(Cy)}]CF3SO3 [Compound 4c] | 11.4 ± 0.9 | 8
3.49 × 10^−3 mol·L^−1 and 2.13 g·L^−1 | −0.29 ± 0.03 |  | [Fe2Cp2(CO)(μ-CO){μ-η^1:η^3-C^3(Me)C^2HC^1NMe(Cy)}]CF3SO3 [Compound 4a] | 11.6 ± 1.3 | 
2.34 × 10^−3 mol·L^−1 and 1.48 g·L^−1 | −0.09 ± 0.01 |  | [Fe2Cp2(CO)(μ-CO){μ-η^1:η^3-C^3(Ph)C^2HC^1NMe(CH2CH = CH2)}]CF3SO3 [Compound 3b] | 29 ± 3 | 
